The values below come from patent US9592223B2, “Small molecule inhibitors of MALT1” (Cornell University, priority 2012, dated 2017).

The structures appear in SMILES notation. Where two headings read alike, the source gives them in different places.

The subject of test [1] is primary human GCB DLBCL cells. As to the kind of experiment: Primary human DLBCL cells ex vivo, GCB cases, Trypan blue. Type of test: cell-based. The following applies: 0.8 μM, 48 hr. As to the method:
After 48 hr exposure, cell number and viability were determined using Trypan blue.
Patient de-identified tissues were obtained in accordance with the guidelines and approval of the Weill Cornell Medical College Review Board. Patient samples were processed as previously described (Cerchietti et al., 2010). Briefly, single cell suspensions from lymph node biopsies were obtained by physical disruption of tissues followed by cell density gradient separation (Fico/Lite LymphoH, Atlanta Biologicals, Lawrenceville, Ga.). Cell number and viability were determined by Trypan blue exclusion. Primary DLBCL cells were cultured in 96-well plates. Cells were grown in advanced RPMI medium with 20% FBS supplemented with antibiotics for 48 hours. […] After 48 hr of exposure, viability was determined by using Trypan blue (Sigma). All samples were normalized to their own replicate control. Statistical significance was calculated using paired T-test.

Test [2] deals with OCI-Ly10 cells. As to the kind of experiment: Growth inhibition, ATP-based luminescent assay. Type of test: cell-based. The following applies: Homo sapiens; OCI-Ly10, single dose, 48 hr. As to the method: (§1) Cell proliferation was determined by ATP quantification using a luminescent method (CellTiter-Glo, Promega, Madison, Wis.) and Trypan blue dye-exclusion (Sigma, St. Louis, Mo.). Cell viability in drug-treated cells was normalized to their respective controls (fractional viability) and results are given as 1-fractional viability. CompuSyn software (Biosoft, Cambridge, UK) was used to determine drug concentrations inhibiting fractional growth compared to controls.
(§2) DLBCL cell lines were grown in exponential growth conditions during the 48 hr of treatment. Cell proliferation was determined by ATP quantification using a luminescent method (CellTiter-Glo, Promega, Madison, Wis.) and Trypan blue dye-exclusion (Sigma, St. Louis, Mo.). Luminescence was measured using the Synergy4 microplate reader (BioTek Instruments, Winooski, Vt.). Standard curves for each cell line were calculated by plotting the cell number (determined by the Trypan blue method) against their luminescence values and number of cells was calculated accordingly. Cell viability in drug-treated cells was normalized to their respective controls (fractional viability) and results are given as 1-fractional viability. CompuSyn software (Biosoft, Cambridge, UK) was used to determine the drug concentration that inhibits the growth of cell lines by […]. Experiments were performed in triplicate.

In test [3] the test system is HBL-1 cells. Kind of test: Growth inhibition, ATP-based luminescent assay. Type of test: cell-based. The following applies: Homo sapiens, HBL1. As to the method:
as §1, §2

Test [4] relates to OCI-Ly3 cells. Kind of test: Growth inhibition, ATP-based luminescent assay. Type of test: cell-based. The following applies: Homo sapiens; OCI-Ly3, single dose, 48 hr. The protocol:
as §1, §2

Test [5] has as its target T1, LZ-MALT1 (MALT1 (340-789) fused with a leucine zipper dimerization motif) (Homo sapiens, UniProt Q9UDY8).
T1 construct: His tag (N); made in house; host or cells: E. coli
As to the kind of experiment: LZ-MALT1 fluorescence assay (Ac-LRSR-AMC cleavage), screening and concentration response. Type of test: biochemical. The note with it: concentration response assay, 0.122 μM to 62.5 μM; read-out: IC50 (biochemical activity, in vitro). The source says:
We reasoned that MALT1 small-molecule inhibitors might be useful chemical tools for studying MALT1 biology and treating MALT1 addicted tumors. However, full-length MALT1 and its paracaspase domain (amino acids 340-789) are naturally present in physiological solutions as a monomer, which has very low proteolytic activity. Caspases generally must homodimerize for maximal catalytic activity (Pop et al., 2006; Walker et al., 1994; Yin et al., 2006) and accordingly the recently reported structures of the paracaspase domain of MALT1 in complex with a peptide inhibitor are dimeric (Wiesmann et al., 2012; Yu et al., 2011). […]
Ac-LRSR-AMC was used as substrate and reactions were measured with excitation/emission wavelengths of 360/465 nm. […] The final percent inhibition was calculated with the formula: {[fluorescencetest compound(T2-T1)−fluorescenceneg ctrl(T2−T1)]/[fluorescencepos ctrl(T2−T1)−fluorescenceneg ctrl(T2−T1)]}×100. […]
The screening consisted of a 20 μl reaction in 384-well black plates (Greiner Bio One, Wemmel, Belgium, catalogue #784076) with 100 nM LZ-MALT1, 200 μM Ac-LRSR-AMC, and 12.5 μM test compound in buffer A (20 mM HEPES pH 7.5, 10 mM KCl, 1.5 mM MgCl2, 1 mM EDTA, 1 mM DTT, 0.01% Triton X-100). The reactions were measured with excitation/emission wavelengths of 360/465 nm using Envision Multilabel Reader (Perkin-Elmer, Waltham, Mass.). […]

T1 sequence (Q9UDY8 with tags, fused parts or gaps limits assumed): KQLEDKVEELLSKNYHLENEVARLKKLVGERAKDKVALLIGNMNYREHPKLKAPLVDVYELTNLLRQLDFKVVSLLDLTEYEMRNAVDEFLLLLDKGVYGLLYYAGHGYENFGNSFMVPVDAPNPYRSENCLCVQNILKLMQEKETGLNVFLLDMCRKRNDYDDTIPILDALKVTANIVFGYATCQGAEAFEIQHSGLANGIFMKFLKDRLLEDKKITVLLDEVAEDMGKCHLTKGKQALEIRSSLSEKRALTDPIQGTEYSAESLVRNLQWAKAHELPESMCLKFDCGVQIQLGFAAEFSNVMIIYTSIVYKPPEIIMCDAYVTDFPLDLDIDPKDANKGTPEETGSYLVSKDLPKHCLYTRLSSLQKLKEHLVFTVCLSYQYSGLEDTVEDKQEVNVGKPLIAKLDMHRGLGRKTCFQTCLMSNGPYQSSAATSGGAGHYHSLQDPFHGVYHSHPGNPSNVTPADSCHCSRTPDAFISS

For orientation: IC50 means the concentration that inhibits the measured activity by half. With `COCCOc1nc(-c2ccc(Cl)c(Cl)c2)n(-c2ccc(NC(=O)CCl)cc2)n1` [MI-2], the “response of cell number and viability” value in test [1] is given as “none of the GCBs did”. The GI50 came out at 0.4 µM in test [2]; 0.2 µM in test [3] (HBL-1, single dose, 48 hr, read-out: GI50); 0.2 µM in test [3] (HBL-1, read-out: GI50 concentration); 0.4 µM in test [4]. In addition, in test [5], the IC50 was ~5 µM.
